Measured values taken from paper PMC9486805, “Identification of a Phage Display-Derived Peptide Interacting with the N-Terminal Region of Factor VII Activating Protease (FSAP) Enables Characterization of Zymogen Activation” (ACS Chemical Biology, 2022).

How the values were obtained:
Factor XIIa = experiment: Specificity: factor XIIa; assay type: biochemical; conditions: Factor XIIa 20 nM; peptide 0-50 μM; CS31 (Fig S7)
Description: Fig S7. Specificity of NNKC9/41 towards other pro-enzymes: Zymogens and their respective active enzymes were incubated with NNKC9/41 or Ser-Ser linear peptide (0-50 μM) and the enzyme activity was monitored using respective chromogenic substrates. Activity of Factor XII(100 nM) and Factor XIIa (20 nM) was measured with the substrate CS31 (1000 µM). Pro-thrombin (100 nM) and thrombin (20 nM) […]
Bend, IN, USA) except plasminogen and FSAP, which were isolated in house; and pro-uPA was from Grünenthal (Stolberg, Germany). All chromogenic substrates were from Hyphen Biomed (Neuville Sur Oise, France). Experiments were carried out in TBS with Tween-20 (0.1 % wt/ vol) BSA (0.3% wt/vol) and CaCl2 (2 mM). Absorbance at 405 nm was measured over time and the enzyme activity is depicted was measured in duplicates (mean + or -range) and similar results were obtained in 3

[1] = test system: extrinsic pathway of coagulation; experiment: Plasma clotting assay, diluted prothrombin time (dPT); assay type: biochemical, human; conditions: prothrombin-deficient citrated plasma 1:5, 10 mM CaCl2; peptide 0–25 μM, 60 min 37 °C; three experiments (Fig 6B)
Description: Figure 6 Pro-FSAP activation and clotting in plasma by NNKC9/41: (A) citrate plasma (1:12 dilution) from donors with WT/WT, WT/MI, and MI/MI genotypes and WT-FSAP-deficient plasma (FSAP-DP) were compared. Substrate turnover was monitored after addition of NNKC9/41 or the Ser–Ser linear peptide (25 μM each). Results are shown as mean + range of duplicate wells. (B) Pooled prothrombin-deficient citrated plasma (1:5 dilution) was recalcified with 10 mM CaCl2 and incubated with NNKC9/41 or scrambled control peptide (0–25 μM each) for 60 min at 37 °C in the presence or absence of the FSAP-inhibitory MA-FSAP-38C7 (5 μg/mL). Initiation of clotting was achieved by adding the tissue factor/phospholipid and prothrombin complex concentrate. Clotting time was measured as diluted prothrombin time (dPT) in seconds. Data are the mean of three independent experiments. […]
Prothrombin-deficient citrated pool plasma (Haemochrom Diagnostica, diluted 1:5 in HBS, pH 7.4) was recalcified with 10 mM CaCl2 and incubated with peptides for 60 min at 37 °C in the presence or absence of the FSAP-inhibitory MA-FSAP-38C7 (5 μg/mL). […] Clot formation was measured optically at 405 nm in a plate reader (Tecan, Crailsheim, Germany). The time from starting the reaction to 50% maximum clot turbidity was measured as diluted prothrombin time (dPT) in seconds.

ΔEGF3 mutant = experiment: Binding of biotinylated peptides to captured ΔEGF3 mutant; parameters: species or system human; conditions: peptide 1 μM; triplicate wells (Fig 2E)
Description: Figure 2 NNKC9/41 interacts with the NTR of pro-FSAP: (A) To determine peptide binding to pro-FSAP, wells were coated with 2 μg/mL pro-FSAP and biotinylated NNKC9/41 and NNK11/189 and their respective scrambled controls were added in different concentration (0–5 μM). Peroxidase-labeled streptavidin was used to detect peptide binding. (B) Same procedure as in (A) except that different proteins were immobilized and biotinylated NNKC9/41 (0–30 μM) was added and its binding was measured. (C) Schematic structure of pro-FSAP with the heavy chain consisting of an NTR, three EGF domains, and a kringle domain, followed by the light chain harboring the serine protease domain (SPD). The binding domains of antibodies used in this study are indicated. (D) Recombinant complete heavy chain (heavy) and truncated heavy chain variants ΔNTR, ΔEGF1, ΔEGF2, ΔEGF3, and ΔKringle were expressed in bacteria and analyzed by sodium dodecyl sulfate poly(acrylamide) gel electrophoresis (SDS-PAGE) followed by Coomassie staining. […] Biotinylated NNKC9/41 or the scrambled control peptide was added at 1 μM and peptide binding was measured with peroxidase-linked streptavidin. […]
Wells were coated with anti-FSAP polyclonal antibodies (5 μg/mL). […] Subsequently, the plates were washed, and bound peptides were detected with peroxidase-coupled streptavidin. […]

Sequence: CRGAMWMYKRC [NNKC9/41]
- effect on activity (Factor XIIa): did not influence the activity
- clotting time (diluted prothrombin time) [1]: significant effect on lowering the clotting time
- peptide binding to ΔEGF3 mutant (ΔEGF3 mutant): higher binding
